Active and inactive are the calls of the source.
Experiments:
[1] = inhibitors of firefly luciferase expression or activity, dose response, H4 neuroglioma cells, luminescence (AID 1990); assay type: functional, cell-based
[2] = Luminescence Cell-Based Dose Response HTS to Identify Inhibitors of 5'UTR Stem-Loop Driven Prion Protein mRNA Translation in H4 Neuroglioblastoma Cells. [Related pubchem assays: 1827 (Project Summary), 1813 (Primary HTS)]; assay type: functional
[3] = biological target: T1, Heat shock factor protein 1 (Mus musculus, UniProt P38532); experiment: inhibition of MG132-induced HSE-luciferase signal, confirmation, cell-based, NIH3T3, luminescence, dose retest (AID 2382); assay type: functional;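 further: NIH3T3 fibroblasts with HSF1-driven luciferase reporter stressed by proteasome inhibitor MG132; luminescence from HSF1-driven luciferase expression after 8 hours of MG132 stress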
T1 sequence (P38532 whole entry): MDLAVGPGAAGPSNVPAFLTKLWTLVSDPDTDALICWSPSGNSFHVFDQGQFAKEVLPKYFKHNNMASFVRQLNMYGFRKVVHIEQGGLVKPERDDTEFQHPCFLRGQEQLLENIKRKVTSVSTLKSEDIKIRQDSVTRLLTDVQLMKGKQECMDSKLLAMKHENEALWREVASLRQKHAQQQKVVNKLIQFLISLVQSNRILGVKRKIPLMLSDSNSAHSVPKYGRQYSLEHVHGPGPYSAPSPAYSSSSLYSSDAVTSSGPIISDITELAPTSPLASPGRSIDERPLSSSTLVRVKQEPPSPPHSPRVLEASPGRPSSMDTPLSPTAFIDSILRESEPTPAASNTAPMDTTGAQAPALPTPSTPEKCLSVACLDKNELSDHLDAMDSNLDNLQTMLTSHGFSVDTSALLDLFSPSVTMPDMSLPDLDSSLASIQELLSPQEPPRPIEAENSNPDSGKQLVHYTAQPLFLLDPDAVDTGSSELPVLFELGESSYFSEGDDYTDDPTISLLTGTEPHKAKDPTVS

[4] = inhibitors of SNCA 5'UTR-driven reporter translation, confirmation, H4 neuroglioma cells, luminescence (AID 1988); assay type: functional, cell-based
HEK293 = experiment: inhibitors of LMP1-driven NF-kB reporter, dose response, cell-based, HEK293, luciferase, cherry-pick (AID 588343); assay type: functional; details: Homo sapiens
[5] = A549 cell cytotoxicity, dose response, cytotoxicity control, plate reader, cherry-pick, antagonist series (AID 743412); assay type: functional, cell-based
[6] = LGR2 antagonists, dose response, cell-based, HEK293, CRE-luciferase reporter, cherry pick, set 2 (AID 743343); assay type: functional;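 further: transfected cells were stimulated with diluted bursicon conditioned medium after compound addition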
[7] = MC4R antagonists, dose response, counter-screen for LGR2 antagonist project, cell-based, plate reader, cherry pick (AID 743444); assay type: functional;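 further: transfected HEK 293 cells stimulated with alpha-MSH peptide; potency of inhibitors of the alpha-MSH evoked signal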
[8] = HEK293 cell cytotoxicity, dose response, cytotoxicity control, plate reader, cherry-picked samples (AID 743446); assay type: functional, cell-based
[9] = biological target: T2, Endoribonuclease toxin MazF (Escherichia coli K-12, UniProt P0AE70); experiment: MazF toxin RNase activators, dose response, biochemical, fluorescence, single-stranded RNA substrate, uHTS hits (AID 588481); assay type: functional
T2 sequence (P0AE70 whole entry): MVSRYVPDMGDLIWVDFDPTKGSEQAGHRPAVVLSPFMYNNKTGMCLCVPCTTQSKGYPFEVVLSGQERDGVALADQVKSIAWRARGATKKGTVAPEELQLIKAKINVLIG

[10] = biological target: T2, Endoribonuclease toxin MazF; experiment: fluorescent RNA oligo signal without MazF, dose response, counter-screen for MazEF activator project, biochemical, fluorescence, single-stranded RNase substrate (AID 588502); assay type: functional
[11] = biological target: T3, Corticotropin-releasing factor receptor 2/Corticotropin-releasing factor-binding protein (Homo sapiens, UniProt P24387+Q13324); experiment: activators of CRF receptor 2 with binding protein – uHTS hits, confirmation (AID 602473); assay type: functional; details: read-out: EC50_Mean
T3 sequence (Q13324 whole entry): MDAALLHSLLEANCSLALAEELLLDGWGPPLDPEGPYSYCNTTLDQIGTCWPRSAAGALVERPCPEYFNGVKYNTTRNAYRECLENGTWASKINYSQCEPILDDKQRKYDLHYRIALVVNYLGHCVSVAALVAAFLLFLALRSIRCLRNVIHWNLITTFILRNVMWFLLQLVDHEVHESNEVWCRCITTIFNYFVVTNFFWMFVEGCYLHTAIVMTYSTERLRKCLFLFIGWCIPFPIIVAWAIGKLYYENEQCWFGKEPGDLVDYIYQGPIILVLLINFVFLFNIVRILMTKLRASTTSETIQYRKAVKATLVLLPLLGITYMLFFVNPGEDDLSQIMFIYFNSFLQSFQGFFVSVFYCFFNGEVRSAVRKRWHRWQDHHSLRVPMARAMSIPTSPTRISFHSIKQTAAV
T3 sequence (P24387 whole entry): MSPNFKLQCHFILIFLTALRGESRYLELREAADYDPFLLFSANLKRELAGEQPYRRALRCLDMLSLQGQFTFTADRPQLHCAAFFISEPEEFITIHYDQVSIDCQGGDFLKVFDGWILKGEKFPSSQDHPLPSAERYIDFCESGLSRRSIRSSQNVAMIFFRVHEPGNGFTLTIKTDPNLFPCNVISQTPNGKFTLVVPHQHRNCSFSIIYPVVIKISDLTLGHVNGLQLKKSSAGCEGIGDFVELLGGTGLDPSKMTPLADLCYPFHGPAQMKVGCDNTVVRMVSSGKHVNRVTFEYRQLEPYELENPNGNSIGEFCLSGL

Bcl-2-related protein A1 = biological target: T4, Bcl-2-related protein A1 (Mus musculus, UniProt Q07440); assay type: functional;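 further: confirmatory dose–response counterscreen on Bfl-1, used to check hits from a UBC13 polyubiquitin inhibitor campaign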
T4 sequence (Q07440 whole entry): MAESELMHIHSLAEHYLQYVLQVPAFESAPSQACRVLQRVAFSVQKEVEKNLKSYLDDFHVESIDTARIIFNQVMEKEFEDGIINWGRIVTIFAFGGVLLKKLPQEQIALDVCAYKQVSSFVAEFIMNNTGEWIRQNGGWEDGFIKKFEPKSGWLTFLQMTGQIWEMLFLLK

[12] = biological target: T5, Ubiquitin-conjugating enzyme E2 N (Homo sapiens, UniProt P61088); assay type: functional
T5 sequence (P61088 whole entry): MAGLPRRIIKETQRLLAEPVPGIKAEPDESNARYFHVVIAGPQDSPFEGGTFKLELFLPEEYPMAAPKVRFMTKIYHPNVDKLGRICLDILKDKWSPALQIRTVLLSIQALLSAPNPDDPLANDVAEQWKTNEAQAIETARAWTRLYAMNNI

[13] = biological target: T5, Ubiquitin-conjugating enzyme E2 N; assay type: functional; remark: listed apart in the source
INS1 = experiment: beta cell apoptosis inhibitors, cytokine rescue, dose response, luminescence, retest (AID 449756); assay type: functional, cell-based; details: Rattus norvegicus;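 further: cell death triggered by IL-1 beta plus TNF-alpha plus IFN-gamma mixture; protective hits raise ATP signal compared with cytokine alone wells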
Cytochrome P450 2C19 = Cytochrome P450 2C19 (Homo sapiens, UniProt P33261); experiment: Cytochrome panel assay with activity outcomes. Panel member name: p450-cyp2c19 Compounds with AC50 equal or less than 10 uM are considered active; assay type: functional; details: read-out: AC50
[14] = biological target: 26S proteasome non-ATPase regulatory subunit 14 (Homo sapiens, UniProt O00487); experiment: inhibition of proteasome subunit RPN11 – biochemical, fluorescence polarization, uHTS hits, confirmation (AID 602368); assay type: functional
[15] = biological target: 72 kDa type IV collagenase (Homo sapiens, UniProt P08253); experiment: Dose Response validation of uHTS RPN11 inhibitor hits using a MMP-2 Fluorescence assay.; assay type: functional
Prothrombin = Prothrombin (Bos taurus, UniProt P00735); experiment: thrombin inhibition, dose response, biochemical, fluorescence polarization, uHTS hits (AID 602369); assay type: functional
Cytochrome P450 2C9 = Cytochrome P450 2C9 (Homo sapiens, UniProt P11712)
Trypsin = Trypsin (Sus scrofa, UniProt P00761); experiment: porcine trypsin inhibitors, dose response, selectivity assay for Rce1 protease inhibitor project, biochemical, quenched peptide fluorescence, cherry-pick (AID 488789)
CAAX prenyl protease 2 [16] = biological target: T6, CAAX prenyl protease 2 (Saccharomyces cerevisiae S288c, UniProt Q03530); assay type: biochemical
T6 sequence (Q03530 whole entry): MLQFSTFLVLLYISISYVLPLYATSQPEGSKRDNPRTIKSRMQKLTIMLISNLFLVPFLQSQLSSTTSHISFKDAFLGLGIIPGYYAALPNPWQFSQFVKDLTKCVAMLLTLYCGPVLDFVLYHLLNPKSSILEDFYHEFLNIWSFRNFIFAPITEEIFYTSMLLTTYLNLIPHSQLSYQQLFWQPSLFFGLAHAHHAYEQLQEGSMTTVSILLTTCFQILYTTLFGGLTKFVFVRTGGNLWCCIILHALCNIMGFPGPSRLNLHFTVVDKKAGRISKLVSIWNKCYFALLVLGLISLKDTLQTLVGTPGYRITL

CAAX prenyl protease 2 [17] = biological target: T7, CAAX prenyl protease 2 (Homo sapiens, UniProt Q9Y256); experiment: human Rce1 protease inhibitors, dose response, biochemical, yeast membranes, quenched-peptide fluorescence, cherry-pick (AID 588849)
T7 sequence (Q9Y256 whole entry): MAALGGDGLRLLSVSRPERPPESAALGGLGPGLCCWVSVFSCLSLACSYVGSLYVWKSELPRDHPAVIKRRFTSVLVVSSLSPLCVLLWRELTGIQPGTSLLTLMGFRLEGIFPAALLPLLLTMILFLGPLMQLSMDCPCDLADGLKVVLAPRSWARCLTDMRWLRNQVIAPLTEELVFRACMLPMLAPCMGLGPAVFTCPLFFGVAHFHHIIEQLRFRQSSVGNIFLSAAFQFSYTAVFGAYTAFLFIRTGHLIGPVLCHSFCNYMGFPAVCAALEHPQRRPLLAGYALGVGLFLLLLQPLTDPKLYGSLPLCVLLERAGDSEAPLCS

26S proteasome non-ATPase regulatory subunit 14, sequence (O00487 whole entry): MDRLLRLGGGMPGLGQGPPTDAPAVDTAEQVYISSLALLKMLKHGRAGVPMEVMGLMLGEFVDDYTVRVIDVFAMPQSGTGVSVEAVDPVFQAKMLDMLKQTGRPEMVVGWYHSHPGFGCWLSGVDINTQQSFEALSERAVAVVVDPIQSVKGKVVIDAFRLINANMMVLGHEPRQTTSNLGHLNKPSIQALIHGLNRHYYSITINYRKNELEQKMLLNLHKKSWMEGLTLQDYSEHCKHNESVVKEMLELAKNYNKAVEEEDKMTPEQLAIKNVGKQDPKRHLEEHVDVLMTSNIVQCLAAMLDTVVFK
72 kDa type IV collagenase, sequence (P08253 whole entry): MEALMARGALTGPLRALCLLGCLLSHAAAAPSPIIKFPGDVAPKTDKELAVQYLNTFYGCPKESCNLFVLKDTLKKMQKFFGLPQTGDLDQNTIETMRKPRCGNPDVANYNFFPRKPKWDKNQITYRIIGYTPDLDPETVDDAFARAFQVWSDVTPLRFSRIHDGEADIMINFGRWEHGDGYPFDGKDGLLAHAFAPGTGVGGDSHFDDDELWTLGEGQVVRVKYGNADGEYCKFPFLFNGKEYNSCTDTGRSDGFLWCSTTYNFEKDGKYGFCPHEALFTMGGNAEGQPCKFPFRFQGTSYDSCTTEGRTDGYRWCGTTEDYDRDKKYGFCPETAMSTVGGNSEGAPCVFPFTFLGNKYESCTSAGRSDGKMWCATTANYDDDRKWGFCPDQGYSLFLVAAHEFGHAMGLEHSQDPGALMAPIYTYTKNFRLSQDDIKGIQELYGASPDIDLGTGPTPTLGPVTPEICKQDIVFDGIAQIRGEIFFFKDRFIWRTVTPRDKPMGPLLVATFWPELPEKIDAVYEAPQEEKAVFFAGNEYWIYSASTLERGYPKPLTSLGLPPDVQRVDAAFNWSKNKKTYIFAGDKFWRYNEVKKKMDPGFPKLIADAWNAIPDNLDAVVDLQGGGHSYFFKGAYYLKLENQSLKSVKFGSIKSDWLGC
Trypsin, sequence (P00761 whole entry): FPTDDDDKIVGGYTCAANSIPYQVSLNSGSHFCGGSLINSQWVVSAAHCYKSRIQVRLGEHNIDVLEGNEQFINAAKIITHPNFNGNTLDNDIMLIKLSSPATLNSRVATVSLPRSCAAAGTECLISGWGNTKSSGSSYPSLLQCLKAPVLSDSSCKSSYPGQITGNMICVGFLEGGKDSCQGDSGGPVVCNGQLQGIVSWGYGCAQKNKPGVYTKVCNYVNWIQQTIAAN
Cytochrome P450 2C9, sequence (P11712 whole entry): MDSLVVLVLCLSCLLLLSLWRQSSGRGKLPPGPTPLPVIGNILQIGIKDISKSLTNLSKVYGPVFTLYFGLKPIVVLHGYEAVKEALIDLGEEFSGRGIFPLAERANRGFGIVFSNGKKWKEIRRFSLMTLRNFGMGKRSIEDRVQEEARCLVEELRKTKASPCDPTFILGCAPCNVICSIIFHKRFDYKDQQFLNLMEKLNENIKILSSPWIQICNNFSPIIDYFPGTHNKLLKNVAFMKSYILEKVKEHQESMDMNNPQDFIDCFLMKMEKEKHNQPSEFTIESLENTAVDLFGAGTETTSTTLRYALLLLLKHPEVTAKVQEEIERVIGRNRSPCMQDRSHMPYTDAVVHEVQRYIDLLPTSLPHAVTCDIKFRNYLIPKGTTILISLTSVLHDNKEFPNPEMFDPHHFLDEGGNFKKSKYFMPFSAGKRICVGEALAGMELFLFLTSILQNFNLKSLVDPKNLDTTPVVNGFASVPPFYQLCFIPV
Cytochrome P450 2C19, sequence (P33261 whole entry): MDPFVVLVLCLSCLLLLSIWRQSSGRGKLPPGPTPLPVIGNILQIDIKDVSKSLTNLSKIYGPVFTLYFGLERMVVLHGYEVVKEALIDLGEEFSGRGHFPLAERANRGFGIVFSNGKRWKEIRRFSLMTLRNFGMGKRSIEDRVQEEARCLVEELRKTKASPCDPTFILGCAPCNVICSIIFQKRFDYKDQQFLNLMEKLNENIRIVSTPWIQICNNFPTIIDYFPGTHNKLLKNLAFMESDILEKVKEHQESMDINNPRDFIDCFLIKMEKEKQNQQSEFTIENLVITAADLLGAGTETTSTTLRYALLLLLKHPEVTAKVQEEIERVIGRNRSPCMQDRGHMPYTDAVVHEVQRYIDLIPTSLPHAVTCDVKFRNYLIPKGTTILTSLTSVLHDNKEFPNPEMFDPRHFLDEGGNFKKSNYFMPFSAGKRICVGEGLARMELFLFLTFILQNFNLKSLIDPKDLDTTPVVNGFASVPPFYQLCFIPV

COc1cccc(-c2nc3cc(N4CCN(C)CC4)ccc3[nH]2)c1
EC50 [1]: 9.73 µM (inconclusive)
EC50 [2]: 5.7 µM (active)
EC50 [3]: < 0.16 µM (active)
EC50 [4]: 9.34 µM (inconclusive)
AC50 (HEK293): 0.857 µM (active)
AC50 [5]: > 52 µM (inactive)
AC50 [6]: 2.55 µM (active)
AC50 [7]: 1.57 µM (active)
AC50 [8]: > 52 µM (inactive)

Cn1c(=O)c2[nH]c(-c3ccccc3Cl)c(O)c2n(C)c1=O
EC50 [9]: 55.6 µM (inactive)
EC50 [10]: 16 µM (active)
EC50 [11]: > 53 µM (inactive)

Cc1ccc(C(C(=O)NCC2CCCO2)N(C(=O)c2snc(C(N)=O)c2N)c2ccc3c(c2)OCCO3)cc1 (stereo not drawn)
IC50 (Bcl-2-related protein A1): > 20 µM (inactive)
IC50 [12]: 12.6 µM (active)
IC50 [13]: 13.1 µM (active)

CCC(=O)NC(c1cc(Cl)c2cccnc2c1O)C1CC1 (stereo not drawn)
AC50 (HEK293): 10.1 µM (active)
AC50 (INS1): 1.89 µM (active)

O=C(NN=C1c2ccccc2-c2ccccc21)c1ccccn1
AC50 (Cytochrome P450 2C19): 2.82 µM (inconclusive)
IC50 [14]: 24.4 µM (active)
IC50 [15]: > 100 µM (inactive)
IC50 (Prothrombin): > 100 µM (inactive)
AC50 (Cytochrome P450 2C9): 7.08 µM (inconclusive)

O=C(CCN1C(=O)/C(=C\c2cccs2)SC1=S)Nc1ccccn1
IC50 [14]: 9.93 µM (active)
IC50 [15]: > 100 µM (inactive)
IC50 (Prothrombin): 15.1 µM (active)

COc1ccc(C2=NN(C(=O)CCC(=O)O)C(c3cccs3)C2)cc1 (stereo not drawn)
AC50 (Trypsin): 4.38 µM (active)
AC50 (CAAX prenyl protease 2 [16]): 9.03 µM (active)
AC50 (CAAX prenyl protease 2 [17]): 12.6 µM (active)

Source: ChEMBL document CHEMBL1201862, “PubChem BioAssay data set” (2004)
